Data taken from US10457655B2, “Compounds and compositions for inhibition of FASN” (FORMA Therapeutics, Inc., priority 2013, dated 2019).

Molecular target: FASN enzyme (Homo sapiens, UniProt P49327)
Assay: Enzymatic Assay for FASN Inhibitors
Format: biochemical
Details: not given
Outline: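 40 nM FASN preincubated with compound 60 min at 25° C in HEPES pH 7.3 buffer with 0.04% Triton X-100. Then 20 μM acetyl-CoA, 60 μM malonyl-CoA and 100 μM NADPH added for 90 min, quenched with CPM thiol probe; fluorescence 360/530 nm, IC50 by four-parameter fit.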

Chain of FASN enzyme (P49327 whole entry): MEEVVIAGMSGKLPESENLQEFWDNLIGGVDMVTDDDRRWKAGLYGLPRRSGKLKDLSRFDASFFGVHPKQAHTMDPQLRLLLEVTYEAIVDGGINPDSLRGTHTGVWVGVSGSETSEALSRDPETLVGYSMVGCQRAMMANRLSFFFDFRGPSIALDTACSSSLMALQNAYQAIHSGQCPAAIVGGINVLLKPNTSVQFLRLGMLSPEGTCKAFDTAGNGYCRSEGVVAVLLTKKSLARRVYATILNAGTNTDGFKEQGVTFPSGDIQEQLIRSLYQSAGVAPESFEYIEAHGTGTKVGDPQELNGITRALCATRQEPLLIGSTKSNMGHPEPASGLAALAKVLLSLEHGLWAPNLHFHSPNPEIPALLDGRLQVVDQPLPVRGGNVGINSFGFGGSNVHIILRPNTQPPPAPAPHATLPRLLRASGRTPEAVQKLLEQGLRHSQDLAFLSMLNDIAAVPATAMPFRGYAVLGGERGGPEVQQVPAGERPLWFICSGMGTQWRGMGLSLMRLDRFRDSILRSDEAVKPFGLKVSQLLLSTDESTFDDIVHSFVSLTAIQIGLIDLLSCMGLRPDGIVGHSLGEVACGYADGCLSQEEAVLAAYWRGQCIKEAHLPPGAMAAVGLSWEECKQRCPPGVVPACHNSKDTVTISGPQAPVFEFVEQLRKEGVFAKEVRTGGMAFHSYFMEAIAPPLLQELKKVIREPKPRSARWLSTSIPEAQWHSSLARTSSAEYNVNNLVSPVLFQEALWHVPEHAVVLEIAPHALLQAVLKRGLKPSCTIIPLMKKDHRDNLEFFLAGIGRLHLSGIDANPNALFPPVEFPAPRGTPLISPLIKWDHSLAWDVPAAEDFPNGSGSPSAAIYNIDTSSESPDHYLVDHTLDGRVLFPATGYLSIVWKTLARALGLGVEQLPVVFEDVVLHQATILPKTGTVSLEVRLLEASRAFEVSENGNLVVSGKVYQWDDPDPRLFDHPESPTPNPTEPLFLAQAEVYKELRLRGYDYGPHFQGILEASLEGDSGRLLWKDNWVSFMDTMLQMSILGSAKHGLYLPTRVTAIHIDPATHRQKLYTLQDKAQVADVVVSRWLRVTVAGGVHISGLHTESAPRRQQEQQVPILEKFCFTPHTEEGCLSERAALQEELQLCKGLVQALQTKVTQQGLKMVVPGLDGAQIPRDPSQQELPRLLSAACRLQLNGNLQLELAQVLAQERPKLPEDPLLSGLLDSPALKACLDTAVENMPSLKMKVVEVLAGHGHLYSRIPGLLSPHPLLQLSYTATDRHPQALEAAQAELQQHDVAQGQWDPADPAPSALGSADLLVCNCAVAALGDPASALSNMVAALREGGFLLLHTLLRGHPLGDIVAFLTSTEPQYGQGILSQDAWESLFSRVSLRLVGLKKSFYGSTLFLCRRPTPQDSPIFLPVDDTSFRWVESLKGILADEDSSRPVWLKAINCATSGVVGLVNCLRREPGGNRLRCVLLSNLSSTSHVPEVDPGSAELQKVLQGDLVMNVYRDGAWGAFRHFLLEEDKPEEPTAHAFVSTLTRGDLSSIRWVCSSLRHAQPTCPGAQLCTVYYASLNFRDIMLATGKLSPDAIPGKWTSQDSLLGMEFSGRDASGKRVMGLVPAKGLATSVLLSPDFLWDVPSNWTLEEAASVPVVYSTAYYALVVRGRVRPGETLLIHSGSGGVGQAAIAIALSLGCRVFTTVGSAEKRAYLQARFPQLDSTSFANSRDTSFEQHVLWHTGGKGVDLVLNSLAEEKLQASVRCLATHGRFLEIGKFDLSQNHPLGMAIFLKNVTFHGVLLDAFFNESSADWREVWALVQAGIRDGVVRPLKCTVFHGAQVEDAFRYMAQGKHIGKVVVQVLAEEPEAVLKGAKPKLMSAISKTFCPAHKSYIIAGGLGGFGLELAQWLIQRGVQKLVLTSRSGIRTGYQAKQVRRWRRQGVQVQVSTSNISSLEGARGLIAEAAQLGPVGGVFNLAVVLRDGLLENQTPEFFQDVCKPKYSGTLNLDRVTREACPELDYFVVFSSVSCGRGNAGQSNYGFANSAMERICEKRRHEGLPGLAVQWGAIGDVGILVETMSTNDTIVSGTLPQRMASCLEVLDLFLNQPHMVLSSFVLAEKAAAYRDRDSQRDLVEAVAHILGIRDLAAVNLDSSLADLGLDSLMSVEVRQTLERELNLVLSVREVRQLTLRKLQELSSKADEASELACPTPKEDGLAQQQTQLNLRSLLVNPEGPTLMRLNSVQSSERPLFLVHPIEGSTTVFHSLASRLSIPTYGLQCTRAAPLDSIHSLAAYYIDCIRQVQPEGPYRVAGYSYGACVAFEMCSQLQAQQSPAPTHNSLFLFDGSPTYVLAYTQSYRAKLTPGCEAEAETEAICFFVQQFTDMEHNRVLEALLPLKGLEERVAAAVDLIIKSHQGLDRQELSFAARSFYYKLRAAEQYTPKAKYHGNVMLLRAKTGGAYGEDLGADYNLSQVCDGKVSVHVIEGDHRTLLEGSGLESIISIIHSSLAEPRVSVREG

Row | SMILES | IC50
1 | C[C@@H]1CN(C(=O)C2(O)CC2)CCN1C(=O)c1ccc(-c2ccc(Cl)cc2F)cc1 | < 500 nM
2 | C[C@H]1CN(C(=O)c2ccc(-c3ccc4c(c3)ncn4C)cc2)CCN1C(=O)C1(N)CC1 [1-[(2S)-2-methyl-4-[4-(1-methyl-1H-1,3-benzodiazol-5-yl)benzoyl]piperazine-1-carbonyl]cyclopropan-1-amine] | < 500 nM
3 | Cn1cnc2cc(-c3ccc(C(=O)N4CCN(C(=O)C5(CO)CC5)CC4)cc3)ccc21 [(1-{4-[4-(1-methyl-1H-1,3-benzodiazol-5-yl)benzoyl]piperazine-1-carbonyl}cyclopropyl)methanol] | < 500 nM
4 | CC(C)(C#N)c1cccc(-c2ccc(C(=O)N3CCN(C(=O)C4(O)CC4)CC3)cc2)c1 [2-(3-{4-[4-(1-hydroxycyclopropanecarbonyl)piperazine-1-carbonyl]phenyl}phenyl)-2-methylpropanenitrile] | < 500 nM
5 | O=C(c1ccc(-n2cnc3ccccc32)cc1)N1CCN(C(=O)C2(O)CC2)CC1 [1-{4-[4-(1H-1,3-benzodiazol-1-yl)benzoyl]piperazine-1-carbonyl}cyclopropan-1-ol] | < 500 nM
6 | Cc1nn(C)c2ccc(-c3ccc(C(=O)N4CCN(C(=O)C5(O)CC5)CC4)c(F)c3)cc12 [1-{4-[4-(1,3-dimethyl-1H-indazol-5-yl)-2-fluorobenzoyl]piperazine-1-carbonyl}cyclopropan-1-ol] | < 500 nM
7 | C[C@H]1CN(C(=O)c2ccc(-c3ccc(Cl)cc3F)cc2)CCN1C(=O)C1(O)CC1 | < 500 nM
8 | O=C(c1ccc(-c2ccc(-c3cn[nH]c3)cc2)cc1)N1CCN(C(=O)C2(O)CC2)CC1 | < 500 nM
9 | O=C(c1ccc(-c2cccc(NS(=O)(=O)CC3CC3)c2)cc1)N1CCN(C(=O)C2(O)CC2)CC1 [1-cyclopropyl-N-(3-{4-[4-(1-hydroxycyclopropanecarbonyl)piperazine-1-carbonyl]phenyl}phenyl)methanesulfonamide] | < 500 nM
10 | Cc1nn(C)c2ccc(-c3ccc(C(=O)N4CCN(C(=O)C5(N)CCC5)CC4)c(F)c3)cc12 [1-{4-[4-(1,3-dimethyl-1H-indazol-5-yl)-2-fluorobenzoyl]piperazine-1-carbonyl}cyclobutan-1-amine] | < 500 nM
11 | Cn1cnc2cc(-c3cc(F)c(C(=O)N4CCN(C(=O)C5(O)CC5)CC4)c(F)c3)ccc21 [1-{4-[2,6-difluoro-4-(1-methyl-1H-1,3-benzodiazol-5-yl)benzoyl]piperazine-1-carbonyl}cyclopropan-1-ol] | < 500 nM
12 | Cn1cnc2cc(-c3ccc(C(=O)N4CCN(C(=O)C5(O)CC5)CC4(C)C)cc3)ccc21 | < 500 nM
13 | C[C@@H]1CN(C(=O)c2ccc(-c3ccc4c(c3)ncn4C)cc2)CCN1C(=O)C1(O)CC1 [1-[(2R)-2-methyl-4-[4-(1-methyl-1H-1,3-benzodiazol-5-yl)benzoyl]piperazine-1-carbonyl]cyclopropan-1-ol] | < 500 nM
14 | Cn1cnc2cc(-c3ccc(C(=O)N4CCN(C(=O)C5(O)CC5)[C@@H](CO)C4)cc3)ccc21 [1-[(2R)-2-(hydroxymethyl)-4-[4-(1-methyl-1H-1,3-benzodiazol-5-yl)benzoyl]piperazine-1-carbonyl]cyclopropan-1-ol] | < 500 nM
15 | O=C(c1ccc(-c2cc(Cl)cc3[nH]c(=O)[nH]c23)cc1)N1CCN(C(=O)C2(O)CC2)CC1 [6-chloro-4-{4-[4-(1-hydroxycyclopropanecarbonyl)piperazine-1-carbonyl]phenyl}-2,3-dihydro-1H-1,3-benzodiazol-2-one] | < 500 nM
16 | O=C(c1ccc(N2CCc3[nH]c4ccccc4c3C2)cc1)N1CCN(C(=O)C2(O)CC2)CC1 [1-[4-(4-{1H,2H,3H,4H,5H-pyrido[4,3-b]indol-2-yl}benzoyl)piperazine-1-carbonyl]cyclopropan-1-ol] | < 500 nM
17 | O=C(c1ccc(-c2cc(Cl)ccc2F)cc1Cl)N1CCN(C(=O)C2(O)CC2)CC1 [1-{4-[2-chloro-4-(5-chloro-2-fluorophenyl)benzoyl]piperazine-1-carbonyl}cyclopropan-1-ol] | < 500 nM
18 | N#Cc1ccc2c(c1)CN(c1ccc(C(=O)N3CCN(C(=O)C4(O)CC4)CC3)cc1)CC2 [2-{4-[4-(1-hydroxycyclopropanecarbonyl)piperazine-1-carbonyl]phenyl}-1,2,3,4-tetrahydroisoquinoline-7-carbonitrile] | < 500 nM
19 | Cc1[nH]c2ccccc2c1-c1ccc(C(=O)N2CCN(C(=O)C3(O)CC3)CC2)cc1 [1-{4-[4-(2-methyl-1H-indol-3-yl)benzoyl]piperazine-1-carbonyl}cyclopropan-1-ol] | < 500 nM
20 | N#CC1(c2cccc(-c3ccc(C(=O)N4CCN(C(=O)C5(O)CC5)CC4)cc3)c2)CCC1 [1-(3-{4-[4-(1-hydroxycyclopropanecarbonyl)piperazine-1-carbonyl]phenyl}phenyl)cyclobutane-1-carbonitrile] | < 500 nM

Further lines, results first:

Row | IC50 | SMILES
21 | < 500 nM | O=C(c1ccc(-c2ccc3[nH]c(CO)nc3c2)cc1)N1CCN(C(=O)C2(O)CC2)CC1 [1-(4-{4-[2-(hydroxymethyl)-1H-1,3-benzodiazol-5-yl]benzoyl}piperazine-1-carbonyl)cyclopropan-1-ol]
22 | < 500 nM | O=C(Nc1cccc(-c2ccc(C(=O)N3CCN(C(=O)C4(O)CC4)CC3)cc2)c1)C1CC(F)(F)C1 [3,3-difluoro-N-(3-{4-[4-(1-hydroxycyclopropanecarbonyl)piperazine-1-carbonyl]phenyl}phenyl)cyclobutane-1-carboxamide]
23 | < 500 nM | C[C@H]1CN(C(=O)c2ccc(N3CCc4cccnc4C3)cc2)CCN1C(=O)C1(O)CC1 [1-[(2S)-2-methyl-4-[4-(5,6,7,8-tetrahydro-1,7-naphthyridin-7-yl)benzoyl]piperazine-1-carbonyl]cyclopropan-1-ol]
24 | < 500 nM | Cn1ncc2ccc(-c3ccc(C(=O)N4CCN(C(=O)C5(O)CC5)CC4)c(F)c3)cc21 [1-{4-[2-fluoro-4-(1-methyl-1H-indazol-6-yl)benzoyl]piperazine-1-carbonyl}cyclopropan-1-ol]
25 | < 500 nM | C[C@H]1CN(C(=O)C2(N)CC2)CCN1C(=O)c1ccc(-c2ccc3c(c2)ncn3C)cc1 [1-[(3S)-3-methyl-4-[4-(1-methyl-1H-1,3-benzodiazol-5-yl)benzoyl]piperazine-1-carbonyl]cyclopropan-1-amine]
26 | < 500 nM | O=C(c1ccc(-c2cccc(Cl)c2Cl)cc1)N1CCN(C(=O)C2(O)CC2)CC1 [1-[(4-{[4-(2,3-dichlorophenyl)phenyl]carbonyl}piperazin-1-yl)carbonyl]cyclopropan-1-ol]
27 | < 500 nM | O=C(c1ccc(-c2cccc3[nH]cnc23)cc1Cl)N1CCN(C(=O)C2(O)CC2)CC1 [1-{4-[4-(1H-1,3-benzodiazol-4-yl)-2-chlorobenzoyl]piperazine-1-carbonyl}cyclopropan-1-ol]
28 | < 500 nM | O=C(c1ccc(-c2nc3ccccn3c2Cl)cc1)N1CCN(C(=O)C2(O)CC2)CC1
29 | < 500 nM | Cn1cc2ccc(-c3ccc(C(=O)N4CCN(C(=O)C5(O)CC5)CC4)cc3F)cc2n1 [1-{4-[3-fluoro-4-(2-methyl-2H-indazol-6-yl)benzoyl]piperazine-1-carbonyl}cyclopropan-1-ol]
30 | < 500 nM | C[C@H]1CN(C(=O)c2ccc(-c3ccc4c(c3)ncn4C)cc2F)CCN1C(=O)C1(O)CC1 [1-[(2S)-4-[2-fluoro-4-(1-methyl-1H-1,3-benzodiazol-5-yl)benzoyl]-2-methylpiperazine-1-carbonyl]cyclopropan-1-ol]

Same assay, conditions: FASN enzymatic assay; Table 2-2

Row | SMILES | IC50
31 | O=C(c1ccc(-c2ccccc2)cc1)N1CCN(C(=O)C2(O)CCC2)CC1 [1-({4-[(4-phenylphenyl)carbonyl]piperazin-1-yl}carbonyl)cyclobutan-1-ol] | 500 to 5000 nM
32 | O=C(c1ccc(-c2ccc(Cl)cc2C(F)(F)F)cc1)N1CCN(C(=O)C2(O)CC2)CC1 [1-{[4-({4-[4-chloro-2-(trifluoromethyl)phenyl]phenyl}carbonyl)piperazin-1-yl]carbonyl}cyclopropan-1-ol] | 500 to 5000 nM
33 | COc1cc(C(=O)N2CCN(C(=O)C3(O)CC3)CC2)ccc1-c1ccc2ncccc2c1 [1-[(4-{[3-methoxy-4-(quinolin-6-yl)phenyl]carbonyl}piperazin-1-yl)carbonyl]cyclopropan-1-ol] | 500 to 5000 nM
34 | COc1ccc2cc(-c3ccc(C(=O)N4CCN(C(=O)C5(O)CC5)CC4)nc3)ccc2n1 [1-[(4-{[5-(2-methoxyquinolin-6-yl)pyridin-2-yl]carbonyl}piperazin-1-yl)carbonyl]cyclopropan-1-ol] | 500 to 5000 nM

Continued, values first:

Row | IC50 | SMILES
35 | 500 to 5000 nM | O=C(c1ccc(-c2ccc(Cl)cc2F)cn1)N1CCN(C(=O)C2(O)CC2)CC1 [1-[(4-{[5-(4-chloro-2-fluorophenyl)pyridin-2-yl]carbonyl}piperazin-1-yl)carbonyl]cyclopropan-1-ol]
36 | 500 to 5000 nM | Cc1nc(-c2ccc3c(ccn3C)c2)sc1C(=O)N1CCN(C(=O)C2(O)CC2)CC1 [1-[(4-{[4-methyl-2-(1-methyl-1H-indol-5-yl)-1,3-thiazol-5-yl]carbonyl}piperazin-1-yl)carbonyl]cyclopropan-1-ol]

Same assay, conditions: FASN enzymatic assay; Table 2-3

Row | IC50 | SMILES
37 | ≥ 5000 nM | COc1ccc(F)c(-c2ccc(C(=O)N3CCN(C(=O)C4(O)CC4)CC3)cc2)c1 [1-[(4-{[4-(2-fluoro-5-methoxyphenyl)phenyl]carbonyl}piperazin-1-yl)carbonyl]cyclopropan-1-ol]
38 | ≥ 5000 nM | N#Cc1cc(F)ccc1-c1ccc(C(=O)N2CCN(C(=O)C3(O)CC3)CC2)cc1 [5-fluoro-2-[4-({4-[(1-hydroxycyclopropyl)carbonyl]piperazin-1-yl}carbonyl)phenyl]benzonitrile]
39 | ≥ 5000 nM | COC(C)(C)C(=O)N1CCN(C(=O)c2ccc(-c3ccccc3)cc2)CC1 [2-methoxy-2-methyl-1-{4-[(4-phenylphenyl)carbonyl]piperazin-1-yl}propan-1-one]
40 | ≥ 5000 nM | O=C(c1ccc(Oc2ccccc2)cc1)N1CCN(C(=O)C2(O)CC2)CC1 [1-({4-[(4-phenoxyphenyl)carbonyl]piperazin-1-yl}carbonyl)cyclopropan-1-ol]
41 | ≥ 5000 nM | O=C(c1ccc(-c2cc(CO)ccc2Cl)cc1)N1CCN(C(=O)C2(O)CC2)CC1 [1-{[4-({4-[2-chloro-5-(hydroxymethyl)phenyl]phenyl}carbonyl)piperazin-1-yl]carbonyl}cyclopropan-1-ol]
